Source: patent US5556744A, “Methods and compositions for diagnosing and treating certain HIV infected patients” (The Trustees of the University of Pennsylvania, priority 1994, dated 1996)

How the values were obtained:
[1] = test system: maternal sera (antibodies); assay: ELISA peptide-binding of maternal sera (Example 6); design: species or system human; settings: for Number of Non-Transmitters which bound to peptide / Percent of Non-Transmitters which bound to peptide: N = 12; for Number of Transmitters which bound to peptide / Percent of Transmitters which bound to peptide: N = 4
Text: A total of 86 maternal sera samples obtained from patients of the Hospital of the University of Pennsylvania during the third trimester of pregnancy were used in this study 58 (67%) were non-transmitters and 28 (33%) were transmitters. This is approximately consistent with the national average (i.e. a rate of transmission between 25-30%). Transmission status was based upon serological or molecular diagnosis of children (at an age of greater than 15 months) born to these mothers. Because of the constraints on the volume of serum available for many of these samples, not all sera were analyzed with all the peptides. However, each sera sample was run with at least 40 peptides.
These peptides are of an average length of 16 amino acids and covered the entire external as well as the transmembrane glycoprotein of HIV-1. Peptide binding was analyzed by ELISA essentially as described in Example 3.
The results of one study, using some of the peptides identified above among others, is provided in Table 12, which illustrates the number and percent of non-transmitters which bound to the tested peptide. The percentage designation refers to the percentage of sera samples which bound to a particular peptide. A value of greater than 0% means that at least one of the samples bound to the particular peptides.

[2] = test system: maternal HIV+ sera (antibodies); assay: RIA / ELISA binding of maternal HIV+ sera to gp120 and gp41 peptides (Example 3); design: species or system human
How it was run: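 Peptides were coated at 10 μg/ml in carbonate buffer pH 9.6 and blocked with 1% BSA. Sera at 1:50 and 1:500 were incubated overnight at 4°C and detected with ¹²⁵I anti-human IgG (RIA) or HRP/TMB at OD450 (ELISA). Specific binding was taken as peptide minus no-peptide wells, scored as a ratio to normal human serum.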

[3] = Serum No. 1, Non-Transmission Group
[4] = Serum No. 2, Non-Transmission Group
[5] = Serum No. 3, Non-Transmission Group
[6] = Serum No. 4, Transmission Group
[7] = Serum No. 5, Transmission Group
[8] = Serum No. 6, Non-Transmission Group
[9] = Serum No. 7, Non-Transmission Group
[10] = Serum No. 8, Non-Transmission Group
[11] = Serum No. 9, Non-Transmission Group
[12] = Serum No. 10, Transmission Group
[13] = Serum No. 11, Non-Transmission Group
[14] = Serum No. 12, Non-Transmission Group
[15] = Serum No. 13, Transmission Group
[16] = Serum No. 14, Transmission Group
[17] = Serum No. 15, Transmission Group
[18] = Serum No. 16, Non-Transmission Group
[19] = Serum No. 17, Non-Transmission Group
[20] = Serum No. 18, Non-Transmission Group
[21] = Serum No. 19, Transmission Group
[22] = Serum No. 20, Non-Transmission Group

| Substance | Number of Non-Transmitters which bound to peptide [1] | Percent of Non-Transmitters which bound to peptide [1] [%] | Number of Transmitters which bound to peptide [1] | Percent of Transmitters which bound to peptide [1] [%] | Binding of maternal HIV+ serum to peptide (sera/NHS ratio) [2, 3] | Binding of maternal HIV+ serum to peptide (sera/NHS ratio) [2, 4] | Binding of maternal HIV+ serum to peptide (sera/NHS ratio) [2, 5] | Binding of maternal HIV+ serum to peptide (sera/NHS ratio) [2, 6] | Binding of maternal HIV+ serum to peptide (sera/NHS ratio) [2, 7] | Binding of maternal HIV+ serum to peptide (sera/NHS ratio) [2, 8] | Binding of maternal HIV+ serum to peptide (sera/NHS ratio) [2, 9] | Binding of maternal HIV+ serum to peptide (sera/NHS ratio) [2, 10] | Binding of maternal HIV+ serum to peptide (sera/NHS ratio) [2, 11] | Binding of maternal HIV+ serum to peptide (sera/NHS ratio) [2, 12] | Binding of maternal HIV+ serum to peptide (sera/NHS ratio) [2, 13] | Binding of maternal HIV+ serum to peptide (sera/NHS ratio) [2, 14] | Binding of maternal HIV+ serum to peptide (sera/NHS ratio) [2, 15] | Binding of maternal HIV+ serum to peptide (sera/NHS ratio) [2, 16] | Binding of maternal HIV+ serum to peptide (sera/NHS ratio) [2, 17] | Binding of maternal HIV+ serum to peptide (sera/NHS ratio) [2, 18] | other results |
| --- | --- | --- | --- | --- | --- | --- | --- | --- | --- | --- | --- | --- | --- | --- | --- | --- | --- | --- | --- | --- | --- |
| CIVQQQNNLLRAI-EAQQHLLQLTVWGIKQL (CIVQQQNNLLRAIEAQQHLLQLTVWGIKQL) [Peptide 560] | 0 | 0 | 0 | 0 | + (which value is between 2 to 3) | - (specific OD450 or cpm of sera sample binding to peptide divided by the specific OD450 or cpm of NHS sample binding to peptide, which value is less than 2) | - (specific OD450 or cpm of sera sample binding to peptide divided by the specific OD450 or cpm of NHS sample binding to peptide, which value is less than 2) | - (specific OD450 or cpm of sera sample binding to peptide divided by the specific OD450 or cpm of NHS sample binding to peptide, which value is less than 2) | - (specific OD450 or cpm of sera sample binding to peptide divided by the specific OD450 or cpm of NHS sample binding to peptide, which value is less than 2) | - (specific OD450 or cpm of sera sample binding to peptide divided by the specific OD450 or cpm of NHS sample binding to peptide, which value is less than 2) | - (specific OD450 or cpm of sera sample binding to peptide divided by the specific OD450 or cpm of NHS sample binding to peptide, which value is less than 2) | - (specific OD450 or cpm of sera sample binding to peptide divided by the specific OD450 or cpm of NHS sample binding to peptide, which value is less than 2) | - (specific OD450 or cpm of sera sample binding to peptide divided by the specific OD450 or cpm of NHS sample binding to peptide, which value is less than 2) | - (specific OD450 or cpm of sera sample binding to peptide divided by the specific OD450 or cpm of NHS sample binding to peptide, which value is less than 2) | - (specific OD450 or cpm of sera sample binding to peptide divided by the specific OD450 or cpm of NHS sample binding to peptide, which value is less than 2) | - (specific OD450 or cpm of sera sample binding to peptide divided by the specific OD450 or cpm of NHS sample binding to peptide, which value is less than 2) | - (specific OD450 or cpm of sera sample binding to peptide divided by the specific OD450 or cpm of NHS sample binding to peptide, which value is less than 2) | - (specific OD450 or cpm of sera sample binding to peptide divided by the specific OD450 or cpm of NHS sample binding to peptide, which value is less than 2) | - (specific OD450 or cpm of sera sample binding to peptide divided by the specific OD450 or cpm of NHS sample binding to peptide, which value is less than 2) | - (specific OD450 or cpm of sera sample binding to peptide divided by the specific OD450 or cpm of NHS sample binding to peptide, which value is less than 2) | Binding of maternal HIV+ serum to peptide (sera/NHS ratio) [2, 19]: - (specific OD450 or cpm of sera sample binding to peptide divided by the specific OD450 or cpm of NHS sample binding to peptide, which value is less than 2); Binding of maternal HIV+ serum to peptide (sera/NHS ratio) [2, 20]: - (specific OD450 or cpm of sera sample binding to peptide divided by the specific OD450 or cpm of NHS sample binding to peptide, which value is less than 2); Binding of maternal HIV+ serum to peptide (sera/NHS ratio) [2, 21]: - (specific OD450 or cpm of sera sample binding to peptide divided by the specific OD450 or cpm of NHS sample binding to peptide, which value is less than 2); Binding of maternal HIV+ serum to peptide (sera/NHS ratio) [2, 22]: - (specific OD450 or cpm of sera sample binding to peptide divided by the specific OD450 or cpm of NHS sample binding to peptide, which value is less than 2) |
| DREINNYTSLIHSLI [Peptide 40] | 1 | 8.3 | 0 | 0 | - (specific OD450 or cpm of sera sample binding to peptide divided by the specific OD450 or cpm of NHS sample binding to peptide, which value is less than 2) | - (specific OD450 or cpm of sera sample binding to peptide divided by the specific OD450 or cpm of NHS sample binding to peptide, which value is less than 2) | - (specific OD450 or cpm of sera sample binding to peptide divided by the specific OD450 or cpm of NHS sample binding to peptide, which value is less than 2) | - (specific OD450 or cpm of sera sample binding to peptide divided by the specific OD450 or cpm of NHS sample binding to peptide, which value is less than 2) | - (specific OD450 or cpm of sera sample binding to peptide divided by the specific OD450 or cpm of NHS sample binding to peptide, which value is less than 2) | - (specific OD450 or cpm of sera sample binding to peptide divided by the specific OD450 or cpm of NHS sample binding to peptide, which value is less than 2) | - (specific OD450 or cpm of sera sample binding to peptide divided by the specific OD450 or cpm of NHS sample binding to peptide, which value is less than 2) | - (specific OD450 or cpm of sera sample binding to peptide divided by the specific OD450 or cpm of NHS sample binding to peptide, which value is less than 2) | - (specific OD450 or cpm of sera sample binding to peptide divided by the specific OD450 or cpm of NHS sample binding to peptide, which value is less than 2) | - (specific OD450 or cpm of sera sample binding to peptide divided by the specific OD450 or cpm of NHS sample binding to peptide, which value is less than 2) | - (specific OD450 or cpm of sera sample binding to peptide divided by the specific OD450 or cpm of NHS sample binding to peptide, which value is less than 2) | - (specific OD450 or cpm of sera sample binding to peptide divided by the specific OD450 or cpm of NHS sample binding to peptide, which value is less than 2) | - (specific OD450 or cpm of sera sample binding to peptide divided by the specific OD450 or cpm of NHS sample binding to peptide, which value is less than 2) | - (specific OD450 or cpm of sera sample binding to peptide divided by the specific OD450 or cpm of NHS sample binding to peptide, which value is less than 2) | - (specific OD450 or cpm of sera sample binding to peptide divided by the specific OD450 or cpm of NHS sample binding to peptide, which value is less than 2) | - (specific OD450 or cpm of sera sample binding to peptide divided by the specific OD450 or cpm of NHS sample binding to peptide, which value is less than 2) | Binding of maternal HIV+ serum to peptide (sera/NHS ratio) [2, 19]: - (specific OD450 or cpm of sera sample binding to peptide divided by the specific OD450 or cpm of NHS sample binding to peptide, which value is less than 2); Binding of maternal HIV+ serum to peptide (sera/NHS ratio) [2, 20]: - (specific OD450 or cpm of sera sample binding to peptide divided by the specific OD450 or cpm of NHS sample binding to peptide, which value is less than 2); Binding of maternal HIV+ serum to peptide (sera/NHS ratio) [2, 21]: - (specific OD450 or cpm of sera sample binding to peptide divided by the specific OD450 or cpm of NHS sample binding to peptide, which value is less than 2); Binding of maternal HIV+ serum to peptide (sera/NHS ratio) [2, 22]: - (specific OD450 or cpm of sera sample binding to peptide divided by the specific OD450 or cpm of NHS sample binding to peptide, which value is less than 2) |
| YNKRKRIHIQRGPGRAFYTTKNII [AIDS-PND] | 7 | 58.3 | 1 | 25 |  |  |  |  |  |  |  |  |  |  |  |  |  |  |  |  | Correlation of peptide binding with non-transmitters (in words) ([1]; Example 6): selectively correlate with non-transmitters; Fold binding, non-transmitters vs transmitters ([1]; Example 6): at least two fold greater; Percent of Non-Transmitters which bound to peptide ([1]; listed as AID-PND): greater than 50% |
| p41-20: gp41 peptide, amino acids 644-663, HIV strain IIIB, SEQ ID NO: 154 (SLIEESQNQQEKNEQELLEL) | 2 | 16.7 | 0 | 0 |  |  |  |  |  |  |  |  |  |  |  |  |  |  |  |  |  |
